The results in this text go back to article PMC7352759, “S(+)-(2E)-N-(2-Hydroxypropyl)-3-Phenylprop-2-Enamide (KM-568): A Novel Cinnamamide Derivative with Anticonvulsant Activity in Animal Models of Seizures and Epilepsy” (International Journal of Molecular Sciences, 2020).

For test [1], the system named is rat cerebral cortex AMPA receptor. As to the kind of experiment: AMPA receptor radioligand binding ([3H]AMPA). The following applies: 10 µM; agonist radioligand. Here is the method: In order to identify molecular mechanism of action, KM-568 was tested at 10 µM in three radioligand binding assays: rat cerebral cortex GABA receptor non-selective agonist radioligand, AMPA (α-amino-3-hydroxy-5-methyl-4-isoxazolepropionic acid) receptor agonist radioligand, and NMDA (N-methyl-D-aspartate) receptor antagonist radioligand as well as one functional assay involving a human recombinant TRPV1 receptor expressed in CHO cells (agonist and antagonist effects).
Tests were performed by Eurofins Cerep (Eurofins CEREP SA, Celle-Lévescault, France) as a commercial service. In radioligand assays, rat cerebral cortex GABA receptor as well as rat cerebral cortex AMPA (α-amino-3-hydroxy-5-methyl-4-isoxazolepropionic acid) and NMDA (N-methyl-D-aspartate) receptors with 10 nM [^3H]GABA, 8 nM [^3H]AMPA, and 5 nM [^3H]CGP39653, respectively, were used. The results were detected by means of scintillation counting. In functional assays, a human recombinant TRPV1 receptor expressed in Chinese hamster ovary (CHO) cells with 1 µM capsaicin or 30 nM capsazepine were used. Fluorimetry was used as a detection method.

Test [2] relates to LTG-resistant amygdala kindled Sprague–Dawley rats. As to the kind of experiment: Lamotrigine (LTG) resistant amygdala kindled seizure model in rats. It is filed as in vivo. The conditions noted are these: 0.25 h. How it is done:
Anesthetized male Sprague–Dawley rats (250–300 g) were surgically implanted with an electrode into the left amygdala. After a one-week recovery period, kindling was initiated. A suprathreshold stimulus (200 µA) was delivered daily until all animals display stage 4–5 seizures. Lamotrigine at 5 mg/kg i.p. was also administered daily during kindling acquisition. One week after all animals were kindled, the animals received a challenge dose of lamotrigine (30 mg/kg, i.p.) to confirm LTG-resistance. On the 4th day, compound KM-568 was administered i.p. at the doses 20, 40, and 80 mg/kg. Fifteen minutes after administration, rats were challenged with the kindling stimulus. Results were provided as seizure score (according to Racine scale, protection defined as less than 3) and after discharge duration (in sec).

Regarding `C[C@H](O)CNC(=O)/C=C/c1ccccc1` [KM-568, S(+)-(2E)-N-(2-hydroxypropyl)-3-phenylprop-2-enamide], in test [1], the “Effect in AMPA receptor radioligand binding assay” value is given as “No significant effects”. In addition, the ED50 (in general, the midpoint of the dose-response relation) in test [2] (Rattus norvegicus, ip) turned out to be 58.6 mg/kg. Further, in test [2] (i.p., 20 mg/kg), the “Results (protected/tested animals; protection = Racine score <3)” value was 0/7, the “Seizure Duration ± SD” value was 140 ± 17.55 s and the “Seizure Score ± SEM” value is 5.0 ± 0.0. Moreover, in test [2] (i.p., 40 mg/kg), the “Results (protected/tested animals; protection = Racine score <3)” value is on record as 2/7, the “Seizure Duration ± SD” value is 94.71 ± 8.72 s and the “Seizure Score ± SEM” value is 3.86 ± 0.74. Also, in test [2] (i.p., 80 mg/kg), the “Results (protected/tested animals; protection = Racine score <3)” value is 5/7, the “Seizure Duration ± SD” value was 56.57 ± 12.34 s and the “Seizure Score ± SEM” value was 2.86 ± 0.63. Also, the “ED50, lamotrigine-resistant amygdala kindled rat model” value in test [2] (i.p.) is listed as 58.69 (38.09–120.15) mg/kg.
